Where two headings read alike, the source gives them in different places. Positions of bridges follow the written chain, without caps; N, C: chain ends. Non-standard residues stand in square brackets, D forms with d. Residues, ends and D or L forms follow the SMILES beside them. *: point of attachment. Palmitoyl = CCCCCCCCCCCCCCCC(=O)*; AEEA = NCCOCCOCC(=O)O
Legend:
[1] = biological target: T1, human CLR/RAMP2 (Homo sapiens, UniProt O60895+Q16602); test: CLR/RAMP2 receptor-activation assay (PathHunter β-Arrestin); type: cell-based; conditions: for Emax: read-out: CLR/RAMP2 Max Activity
T1 construct: host or cells: CHO-K1 cells (PathHunter β-Arrestin cell line)
T1 sequence (Q16602 23-461): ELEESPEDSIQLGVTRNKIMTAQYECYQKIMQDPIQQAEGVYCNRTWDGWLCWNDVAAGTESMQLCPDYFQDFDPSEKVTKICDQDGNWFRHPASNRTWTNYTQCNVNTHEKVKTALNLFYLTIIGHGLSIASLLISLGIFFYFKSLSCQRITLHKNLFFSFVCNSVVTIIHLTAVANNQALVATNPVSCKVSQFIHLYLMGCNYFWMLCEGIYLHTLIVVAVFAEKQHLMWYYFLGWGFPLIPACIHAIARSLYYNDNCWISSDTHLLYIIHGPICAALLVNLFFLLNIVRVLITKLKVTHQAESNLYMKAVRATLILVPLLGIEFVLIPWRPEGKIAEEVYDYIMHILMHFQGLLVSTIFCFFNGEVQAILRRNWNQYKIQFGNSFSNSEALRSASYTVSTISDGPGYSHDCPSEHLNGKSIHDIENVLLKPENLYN
T1 sequence (O60895 43-175): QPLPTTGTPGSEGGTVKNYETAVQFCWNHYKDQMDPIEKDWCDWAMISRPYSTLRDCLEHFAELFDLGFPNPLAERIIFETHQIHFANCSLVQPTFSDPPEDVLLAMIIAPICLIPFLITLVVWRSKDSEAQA
Experimental: (§1) The bioactivity of peptide analogs was studied using CLR/RAMP1, CLR/RAMP2, and CLR/RAMP3 assays by DiscoveRx (Fremont, CA, USA) in cells that stably express human CLR/RAMP1 (1321N1 cells), CLR/RAMP2 (CHO-K1 cells), or CLR/RAMP3 (CHO-K1 cells). The dose-dependent stimulatory effect of agonists was studied in duplicate, at 10 different concentrations. Determination of the half-maximal effective concentration (EC50) was performed using a 10-point dose-response curves. The starting concentration was 1.0 μM, and it was serially diluted 3-fold, in DMSO.
In this assay, the CLR was fused in frame with a small enzyme donor fragment ProLink™ (PK). The receptor was co-expressed with a fusion protein of β-arrestin and an N-terminal deletion mutant of β-galactosidase (i.e., enzyme acceptor). Activation of the CLR/RAMP2 receptor stimulated the binding of β-arrestin to the PK-tagged receptor and led to an increase in enzyme activities which can then be measured with the PathHunter detection reagents. PathHunter cell lines were seeded in a total volume of 20 μL into 384-well microplates and incubated at 37 °C prior to the assay. Intermediate dilution of samples was performed to generate 5X samples in the assay buffer. A 5 μL aliquot of 5X sample was added to cells and incubated at 37 °C for 90 min. Vehicle concentration was 1%.

[2] = biological target: T2, human CLR/RAMP1 (Homo sapiens, UniProt O60894+Q16602); test: CLR/RAMP1 receptor-activation assay (DiscoverX cAMP Hunter, HitHunter cAMP XS+); type: cell-based; conditions: for Emax: read-out: CLR/RAMP1 Max Activity
T2 construct: host or cells: 1321N1 cells (cAMP Hunter cell line)
T2 sequence (Q16602 23-461): as the sequence (Q16602 23-461) above
T2 sequence (O60894 27-148): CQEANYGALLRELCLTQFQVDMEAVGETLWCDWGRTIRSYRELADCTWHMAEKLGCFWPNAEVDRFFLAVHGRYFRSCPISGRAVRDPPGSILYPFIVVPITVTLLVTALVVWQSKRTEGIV
Experimental: as §1
Cells were seeded in a total volume of 20 μL into 384-well microplates, and the activity was determined using the DiscoverX HitHunter cAMP XS + assay. Before the assay, media was aspirated from cells and replaced with 15 μL 2:1 HBSS/10 mM Hepes: cAMP XS + Ab reagent. Intermediate dilution of samples was performed to generate 4X sample in assay buffer, and 5 μL of the 4X sample was added to cells and incubated at 37°C. Vehicle concentration was 1%.
The chemiluminescent signal was read with a PerkinElmer instrument.

[3] = percentage of positive control β-CGRP

Compound | Emax [1] | Emax [2] | EC50 ([1]; CHO-K1 cells stably expressing human CLR/RAMP2, β-arrestin recruitment, 90 min at 37 °C, 10-point dose-response in duplicate, start 1.0 μM, 3-fold dilution in DMSO) | Emax ([1]; percentage of positive control ADM1-52) | EC50 ([2]; 1321N1 cells stably expressing human CLR/RAMP1, cAMP read-out, 10-point dose-response in duplicate, start 1.0 μM, 3-fold serial dilution in DMSO) | Emax [2, 3]
CCCCCCCCCCCCCCCC(=O)NCCCC[C@H](NC(=O)COCCOCCN)C(=O)NCC(=O)N[C@H]1CSSC[C@@H](C(=O)N[C@H](C(=O)N[C@H](C(=O)N[C@@H](CCC(N)=O)C(=O)N[C@@H](CCCCN)C(=O)N[C@@H](CC(C)C)C(=O)N[C@@H](C)C(=O)N[C@@H](Cc2c[nH]cn2)C(=O)N[C@@H](CCC(N)=O)C(=O)N[C@H](C(=O)N[C@@H](Cc2ccc(O)cc2)C(=O)N[C@@H](CCC(N)=O)C(=O)N[C@@H](Cc2ccccc2)C(=O)N[C@H](C(=O)N[C@@H](CC(=O)O)C(=O)N[C@@H](CCCCN)C(=O)N[C@@H](CC(=O)O)C(=O)N[C@@H](CCCCN)C(=O)N[C@@H](CC(=O)O)C(=O)N[C@@H](CC(N)=O)C(=O)N[C@@H](CO)C(=O)N[C@@H](C)C(=O)N2CCC[C@H]2C(=O)N[C@H](C(=O)N[C@@H](CC(=O)O)C(=O)N2CCC[C@H]2C(=O)N[C@@H](CO)C(=O)N[C@@H](CO)C(=O)N2CCC[C@H]2C(=O)N[C@@H](Cc2c[nH]cn2)C(=O)N[C@@H](CO)C(=O)N[C@@H](Cc2ccc(O)cc2)C(N)=O)C(C)C)[C@@H](C)O)[C@@H](C)CC)C(C)C)[C@@H](C)O)NC(=O)[C@H]([C@@H](C)O)NC(=O)CNC(=O)[C@H](Cc2ccccc2)NC(=O)[C@H](CCCNC(=N)N)NC1=O [Analog B-1] | 143% | 54% | – | – | – | –
CCCCCCCCCCCCCCCC(=O)NCCCC[C@H](NC(=O)[C@@H](N)[C@@H](C)O)C(=O)N[C@@H](CCCCN)C(=O)N[C@H](C(=O)N[C@@H](CC(C)C)C(=O)N[C@@H](CCCNC(=N)N)C(=O)N[C@H](C(=O)NCC(=O)N[C@H]1CSSC[C@@H](C(=O)N[C@H](C(=O)N[C@H](C(=O)N[C@@H](CCC(N)=O)C(=O)N[C@@H](CCCCN)C(=O)N[C@@H](CC(C)C)C(=O)N[C@@H](C)C(=O)N[C@@H](Cc2c[nH]cn2)C(=O)N[C@@H](CCC(N)=O)C(=O)N[C@H](C(=O)N[C@@H](Cc2ccc(O)cc2)C(=O)N[C@@H](CCC(N)=O)C(=O)N[C@@H](Cc2ccccc2)C(=O)N[C@H](C(=O)N[C@@H](CC(=O)O)C(=O)N[C@@H](CCCCN)C(=O)N[C@@H](CC(=O)O)C(=O)N[C@@H](CCCCN)C(=O)N[C@@H](CC(=O)O)C(=O)N[C@@H](CC(N)=O)C(=O)N[C@@H](CO)C(=O)N[C@@H](C)C(=O)N2CCC[C@H]2C(=O)N[C@H](C(=O)N[C@@H](CC(=O)O)C(=O)N2CCC[C@H]2C(=O)N[C@@H](CO)C(=O)N[C@@H](CO)C(=O)N2CCC[C@H]2C(=O)N[C@@H](Cc2c[nH]cn2)C(=O)N[C@@H](CO)C(=O)N[C@@H](Cc2ccc(O)cc2)C(N)=O)C(C)C)[C@@H](C)O)[C@@H](C)CC)C(C)C)[C@@H](C)O)NC(=O)[C@H]([C@@H](C)O)NC(=O)CNC(=O)[C@H](Cc2ccccc2)NC(=O)[C@H](CCCNC(=N)N)NC1=O)[C@@H](C)O)[C@@H](C)O [Analog C-4] | – | – | 0.5 nM | 86% | 0.2 nM | 82%
CCCCCCCCCCCCCCCC(=O)NCCCC[C@H](NC(=O)COCCOCCN)C(=O)NCC(=O)N[C@H]1CSSC[C@@H](C(=O)N[C@H](C(=O)N[C@H](C(=O)N[C@@H](CCC(N)=O)C(=O)N[C@@H](CCCCN)C(=O)N[C@@H](CC(C)C)C(=O)N[C@@H](C)C(=O)N[C@@H](Cc2c[nH]cn2)C(=O)N[C@@H](CCC(N)=O)C(=O)N[C@H](C(=O)N[C@@H](Cc2ccc(O)cc2)C(=O)N[C@@H](CCC(N)=O)C(=O)N[C@@H](Cc2ccccc2)C(=O)N[C@H](C(=O)N[C@@H](CC(=O)O)C(=O)N[C@@H](CCCCN)C(=O)N[C@@H](CC(=O)O)C(=O)N[C@@H](CCCCN)C(=O)N[C@@H](CC(=O)O)C(=O)N[C@@H](CC(N)=O)C(=O)N[C@H](C(=O)N[C@@H](C)C(=O)N2CCC[C@H]2C(=O)N[C@@H](CCCNC(=N)N)C(=O)N[C@@H](CO)C(=O)N[C@@H](CCCCN)C(=O)N[C@H](C(=O)N[C@@H](CO)C(=O)N2CCC[C@H]2C(=O)N[C@@H](CCC(N)=O)C(=O)NCC(=O)N[C@@H](Cc2ccc(O)cc2)C(N)=O)[C@@H](C)CC)C(C)C)[C@@H](C)O)[C@@H](C)CC)C(C)C)[C@@H](C)O)NC(=O)[C@H]([C@@H](C)O)NC(=O)CNC(=O)[C@H](Cc2ccccc2)NC(=O)[C@H](CCCNC(=N)N)NC1=O [Analog C-7] | 147% | 70% | – | – | – | –
CCCCCCCCCCCCCCCC(=O)NCCCC[C@H](NC(=O)COCCOCCN)C(=O)N[C@H](C(=O)N[C@@H](CCCCN)C(=O)N[C@@H](CCCCN)C(=O)N[C@H](C(=O)N[C@@H](CC(C)C)C(=O)N[C@@H](CCCNC(=N)N)C(=O)N[C@H](C(=O)NCC(=O)N[C@H]1CSSC[C@@H](C(=O)N[C@H](C(=O)N[C@H](C(=O)N[C@@H](CCC(N)=O)C(=O)N[C@@H](CCCCN)C(=O)N[C@@H](CC(C)C)C(=O)N[C@@H](C)C(=O)N[C@@H](Cc2c[nH]cn2)C(=O)N[C@@H](CCC(N)=O)C(=O)N[C@H](C(=O)N[C@@H](Cc2ccc(O)cc2)C(=O)N[C@@H](CCC(N)=O)C(=O)N[C@@H](Cc2ccccc2)C(=O)N[C@H](C(=O)N[C@@H](CC(=O)O)C(=O)N[C@@H](CCCCN)C(=O)N[C@@H](CC(=O)O)C(=O)N[C@@H](CCCCN)C(=O)N[C@@H](CC(=O)O)C(=O)N[C@@H](CC(N)=O)C(=O)N[C@H](C(=O)N[C@@H](C)C(=O)N2CCC[C@H]2C(=O)N[C@@H](CCCNC(=N)N)C(=O)N[C@@H](CO)C(=O)N[C@@H](CCCCN)C(=O)N[C@H](C(=O)N[C@@H](CO)C(=O)N2CCC[C@H]2C(=O)N[C@@H](CCC(N)=O)C(=O)NCC(=O)N[C@@H](Cc2ccc(O)cc2)C(N)=O)[C@@H](C)CC)C(C)C)[C@@H](C)O)[C@@H](C)CC)C(C)C)[C@@H](C)O)NC(=O)[C@H]([C@@H](C)O)NC(=O)CNC(=O)[C@H](Cc2ccccc2)NC(=O)[C@H](CCCNC(=N)N)NC1=O)[C@@H](C)O)[C@@H](C)O)[C@@H](C)O [Analog C-8] | 68% | 69% | – | – | – | –
CCCCCCCCCCCCCCCC(=O)NCCCC[C@H](NC(=O)COCCOCCN)C(=O)NCC(=O)N[C@H]1CSSC[C@@H](C(=O)N[C@H](C(=O)N[C@H](C(=O)N[C@@H](CCC(N)=O)C(=O)N[C@@H](CCCCN)C(=O)N[C@@H](CC(C)C)C(=O)N[C@@H](C)C(=O)N[C@@H](Cc2c[nH]cn2)C(=O)N[C@@H](CCC(N)=O)C(=O)N[C@H](C(=O)N[C@@H](Cc2ccc(O)cc2)C(=O)N[C@@H](CCC(N)=O)C(=O)N[C@@H](Cc2ccccc2)C(=O)N[C@H](C(=O)N[C@@H](CC(=O)O)C(=O)N[C@@H](CCCCN)C(=O)N[C@@H](CC(=O)O)C(=O)N[C@@H](CO)C(=O)N[C@@H](C)C(=O)N2CCC[C@H]2C(=O)N[C@H](C(=O)N[C@@H](CC(=O)O)C(=O)N2CCC[C@H]2C(=O)N[C@@H](CO)C(=O)N[C@@H](CO)C(=O)N2CCC[C@H]2C(=O)N[C@@H](Cc2c[nH]cn2)C(=O)N[C@@H](CO)C(=O)N[C@@H](Cc2ccc(O)cc2)C(N)=O)C(C)C)[C@@H](C)O)[C@@H](C)CC)C(C)C)[C@@H](C)O)NC(=O)[C@H]([C@@H](C)O)NC(=O)CNC(=O)[C@H](Cc2ccccc2)NC(=O)[C@H](CCCNC(=N)N)NC1=O [Analog D-1] (H-[AEEA]K(Palmitoyl)GCRFGTCTVQKLAHQIYQFTDKDSAPVDPSSPHSY-NH2; disulfide 4-9) | 77% | 78% | – | – | – | –
CSCC[C@H](NC(=O)CNC(=O)CNC(=O)[C@H](CO)NC(=O)[C@H](CCCNC(=N)N)NC(=O)[C@H](CO)NC(=O)[C@H](CC(C)C)NC(=O)[C@H](CC(C)C)NC(=O)CNC(=O)[C@H](C)NC(=O)[C@H](CC(C)C)NC(=O)[C@H](CCCNC(=N)N)NC(=O)[C@H](Cc1c[nH]cn1)NC(=O)[C@@H](NC(=O)[C@@H](NC(=O)[C@@H]1CSSC[C@H](NC(=O)[C@H](C)N)C(=O)N[C@@H](CC(N)=O)C(=O)N[C@@H]([C@@H](C)O)C(=O)N[C@@H](C)C(=O)N[C@@H]([C@@H](C)O)C(=O)N1)C(C)C)[C@@H](C)O)C(=O)N[C@H](C(=O)N[C@@H](CCCCN)C(=O)N[C@@H](CO)C(=O)N[C@@H](CC(N)=O)C(=O)N[C@@H](Cc1ccccc1)C(=O)N[C@H](C(=O)N1CCC[C@H]1C(=O)N[C@H](C(=O)N[C@@H](CC(N)=O)C(=O)N[C@H](C(=O)NCC(=O)N[C@@H](CO)C(=O)N[C@@H](CCCCN)C(=O)N[C@@H](C)C(=O)N[C@@H](Cc1ccccc1)C(N)=O)C(C)C)[C@@H](C)O)C(C)C)C(C)C [CGRP, calcitonin gene-related peptide, reference compound] | – | – | – | – | – | 103%

— article PMC9655119, “Sustained Activation of CLR/RAMP Receptors by Gel-Forming Agonists” (International Journal of Molecular Sciences, 2022)
